Measured values taken from patent publication US7875297B2, “Method for treating menorrhagia” (Ablation Products LLC, priority 2003, dated 2011).

Test system: beef muscle tissue (fillet mignon)
Experiment: Tissue necrosis with AgNO3 bearing beads placed on the surface of beef muscle tissue
Excerpt: The degree of necrosis was rated as follows: slight visible pitting of the tissue surface (+); moderate pitting of tissue surface with slight blackening of the tissue (++); significant pitting with moderate blackening of the tissue (+++); severe pitting with complete blackening of the tissue ([…]+); and severe pitting with complete blackening of the tissue, spreading beyond the point of contact (+++++).

## O=[N+]([O-])[O-].[Ag+] [AgNO3 Crystal, silver nitrate]
Time 5 minutes
  Tissue Necrosis (degree of necrosis of the tissue under each bead): + + +
Time 10 minutes
  Tissue Necrosis (degree of necrosis of the tissue under each bead): + + + +
Time 15 minutes
  Tissue Necrosis (degree of necrosis of the tissue under each bead): + + + + +
